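Grown in 96-well plates, cells were treated for 48 hours with each compound at five concentrations. Insufficient inhibition: endpoint recorded as highest concentration tested. TGI: total growth inhibition.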
Tests used:
Assay in all cases: growth of human tumour cells (NCI), 48 h
DU-145 prostate = system: DU-145 prostate
MDA-MB-435 = system: MDA-MB-435
HCC-2998 colon = system: HCC-2998 colon
SN12C renal = system: SN12C renal
OVCAR-5 ovarian = system: OVCAR-5 ovarian
RPMI-8226 leukemia = system: RPMI-8226 leukemia
T-47D breast = system: T-47D breast
A498 renal = system: A498 renal
HOP-62 NSCLC = system: HOP-62 NSCLC
HL-60(TB) leukemia = system: HL-60(TB) leukemia
NCI-H460 lung = system: NCI-H460 lung
M14 melanoma = system: M14 melanoma
SR leukemia = system: SR leukemia
HOP-92 NSCLC = system: HOP-92 NSCLC
SF-295 CNS = system: SF-295 CNS
ACHN renal = system: ACHN renal
KM12 colon = system: KM12 colon
SK-OV-3 ovarian = system: SK-OV-3 ovarian
CAKI-1 renal = system: CAKI-1 renal
MALME-3M melanoma = system: MALME-3M melanoma
UACC-62 melanoma = system: UACC-62 melanoma
UO-31 renal = system: UO-31 renal
NCI-H226 lung = system: NCI-H226 lung
UACC-257 melanoma = system: UACC-257 melanoma
SK-MEL-2 melanoma = system: SK-MEL-2 melanoma
LOX IMVI melanoma = system: LOX IMVI melanoma
HCT-116 colon = system: HCT-116 colon
NCI/ADR-RES ovarian = system: NCI/ADR-RES ovarian
786-0 renal = system: 786-0 renal
NCI-H522 lung = system: NCI-H522 lung
RXF 393 renal = system: RXF 393 renal
SW-620 colon = system: SW-620 colon
TK-10 renal = system: TK-10 renal
SNB-75 CNS = system: SNB-75 CNS
A549 NSCLC = system: A549 NSCLC
MOLT-4 leukemia = system: MOLT-4 leukemia
IGROV1 ovarian = system: IGROV1 ovarian
PC-3 prostate = system: PC-3 prostate
MDA-N = system: MDA-N
K-562 leukemia = system: K-562 leukemia
SNB-19 CNS = system: SNB-19 CNS
OVCAR-4 ovarian = system: OVCAR-4 ovarian
HT29 colon = system: HT29 colon
OVCAR-8 ovarian = system: OVCAR-8 ovarian
EKVX NSCLC = system: EKVX NSCLC
U251 CNS = system: U251 CNS
SK-MEL-28 melanoma = system: SK-MEL-28 melanoma
NCI-H23 lung = system: NCI-H23 lung
MCF7 breast = system: MCF7 breast
MDA-MB-231 breast = system: MDA-MB-231 breast
COLO 205 colon = system: COLO 205 colon
SK-MEL-5 melanoma = system: SK-MEL-5 melanoma
SF-268 CNS = system: SF-268 CNS
BT-549 breast = system: BT-549 breast
OVCAR-3 ovarian = system: OVCAR-3 ovarian
HS 578T breast = system: HS 578T breast
SF-539 CNS = system: SF-539 CNS
HCT-15 colon = system: HCT-15 colon

## O=c1[nH]c2c(c(=O)[nH]1)SSC2
DU-145 prostate
  TGI: 28.9 µM
MDA-MB-435
  TGI: 4.67 µM
HCC-2998 colon
  TGI: 30.5 µM
SN12C renal
  TGI: 7.95 µM
OVCAR-5 ovarian
  TGI: 32.4 µM
RPMI-8226 leukemia
  TGI: 6.83 µM
T-47D breast
  TGI: 25.2 µM
A498 renal
  TGI: 52 µM
HOP-62 NSCLC
  TGI: 23.5 µM
HL-60(TB) leukemia
  TGI: 32.6 µM
NCI-H460 lung
  TGI: 27.2 µM
M14 melanoma
  TGI: 4.91 µM
SR leukemia
  TGI: 2.09 µM
HOP-92 NSCLC
  TGI: 10.7 µM
SF-295 CNS
  TGI: 36.6 µM
ACHN renal
  TGI: > 67.5 µM
KM12 colon
  TGI: 38.8 µM
SK-OV-3 ovarian
  TGI: 50.9 µM
CAKI-1 renal
  TGI: 44.5 µM
MALME-3M melanoma
  TGI: 10.1 µM
UACC-62 melanoma
  TGI: 9.14 µM
UO-31 renal
  TGI: 24.2 µM
NCI-H226 lung
  TGI: 41.1 µM
UACC-257 melanoma
  TGI: 14.8 µM
SK-MEL-2 melanoma
  TGI: 14.5 µM
LOX IMVI melanoma
  TGI: 6.24 µM
HCT-116 colon
  TGI: 13.8 µM
NCI/ADR-RES ovarian
  TGI: 8.76 µM
786-0 renal
  TGI: 17.5 µM
NCI-H522 lung
  TGI: 38.5 µM
RXF 393 renal
  TGI: 28.5 µM
SW-620 colon
  TGI: 29.9 µM
TK-10 renal
  TGI: 29.9 µM
SNB-75 CNS
  TGI: 34.8 µM
A549 NSCLC
  TGI: > 63.5 µM
MOLT-4 leukemia
  TGI: 4.79 µM
IGROV1 ovarian
  TGI: 56.8 µM
PC-3 prostate
  TGI: > 71.1 µM
MDA-N
  TGI: 3.17 µM
K-562 leukemia
  TGI: 5.52 µM
SNB-19 CNS
  TGI: > 81.3 µM
OVCAR-4 ovarian
  TGI: 31.4 µM
HT29 colon
  TGI: 40 µM
OVCAR-8 ovarian
  TGI: 10.2 µM
EKVX NSCLC
  TGI: > 81.4 µM
U251 CNS
  TGI: 30.1 µM
SK-MEL-28 melanoma
  TGI: 18.7 µM
NCI-H23 lung
  TGI: 26.9 µM
MCF7 breast
  TGI: > 54.3 µM
MDA-MB-231 breast
  TGI: 5.15 µM
COLO 205 colon
  TGI: 50.7 µM
SK-MEL-5 melanoma
  TGI: 29.1 µM
SF-268 CNS
  TGI: 13.6 µM
BT-549 breast
  TGI: 6.65 µM
OVCAR-3 ovarian
  TGI: 38 µM
HS 578T breast
  TGI: 56 µM
SF-539 CNS
  TGI: 9.7 µM
HCT-15 colon
  TGI: > 91.9 µM

Reference: PubChem BioAssay (NCI)
